Our source for the IC50 values is patent US7399771B2, “Piperidine derivatives as CCR5 inhibitors” (Novartis AG, priority 2002, dated 2008).

Test [1] has as its target T1, Human CCR5 (Homo sapiens, UniProt P51681).
T1 construct: expressed in transfected cells
The test is described as follows: CCR5 functional assay - Ca2+ mobilization in CHO K1 CCR5 transfectants. The format is cell-based. The method, then: b) CCR5 Functional Assay—Ca^2+ Mobilization Human CCR5 is used to generate stable transfectants in CHO K1 cells. These CCR5 transfectants are used for assessing Ca^2+ mobilization in response to stimulation by the CCR5 ligands MIP-1α, MIP-1β, HCC-1(9-74) or RANTES. For the assay the cells are loaded with a Ca^2+-sensitive fluorochrome (Fluo3 or Fluo4). Ligand concentrations between 0.01-100 nM are used to induce Ca^2+ mobilization which is monitored in a fluorometer with appropriate settings. To assess the activity of the compounds to be tested, a baseline fluorescence reading is taken after which the compounds at the desired concentration are added to the cells and fluorescence is further recorded for a certain time to assess whether compounds show agonistic effects. Next the agonist is added to the mixture and fluorescence monitored. The inhibition of Ca^2+ flux in the presence of the compounds to be tested is calculated from the inhibition of maximal fluorescence induced by the agonist. IC50 values are calculated from dose-response curves obtained with the compounds.

Test [2] deals with T1, Human CCR5. The test can be described thus: CCR5 membrane binding assay ([I-125]MIP-1α radioligand, membranes of CHO K1 transfectants). The following applies: membranes of CHO K1 cells transfected with human CCR5; ligand 125-I MIP-1α. As for the experimental part:
a) CCR5 Membrane Binding Assay
Human CCR5 is used to generate stable transfectants in CHO K1 cells. Membranes prepared from these CCR5 transfectants are used in a radioligand binding assay using 125-I MIP-1α as a ligand and the compounds of formula I are tested for inhibitory activity.

T1 sequence (P51681 whole entry): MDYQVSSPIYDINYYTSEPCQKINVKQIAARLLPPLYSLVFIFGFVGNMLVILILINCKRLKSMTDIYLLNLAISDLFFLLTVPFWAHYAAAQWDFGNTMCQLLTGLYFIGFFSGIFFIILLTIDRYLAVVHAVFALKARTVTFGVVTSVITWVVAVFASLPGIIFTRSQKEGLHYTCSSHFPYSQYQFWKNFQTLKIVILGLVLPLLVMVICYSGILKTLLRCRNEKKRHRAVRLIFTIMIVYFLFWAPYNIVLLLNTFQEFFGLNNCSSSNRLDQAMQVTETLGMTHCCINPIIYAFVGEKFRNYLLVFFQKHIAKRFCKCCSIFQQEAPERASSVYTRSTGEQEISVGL

In the case of `Cc1cc[n+]([O-])c(C)c1C(=O)N1CCC(C)(N2CCC(N(c3ccccc3)c3ccccn3)CC2)CC1` [Example 12, (2,4-Dimethyl-1-oxy-pyridin-3-yl)-[4′-methyl-4-(phenyl-pyridin-2-yl-amino)-[1,4′]bipiperidinyl-1′-yl]methanone], the IC50 (in general, the midpoint of a concentration-inhibition curve) in test [1] turned out to be 29 nM.

As to `Cc1nc(CN(c2ccc(Cl)cc2)C2CCN(C3(C)CCN(C(=O)c4c(C)cccc4C)CC3)CC2)cs1` [Example 32], the IC50 in test [2] stood at 0.5 nM.

Regarding `Cc1cc[n+]([O-])c(C)c1C(=O)N1CCC(C)(N2CCC(N(Cc3ccsc3)c3ccccc3)CC2)CC1` [Example 36, (2,4-Dimethyl-1-oxy-pyridin-3-yl)-[4′-methyl-4-(phenyl-thiophen-3-ylmethyl-amino)-[1,4′]bipiperidinyl-1′-yl]-methanone], in test [1] (CHO K1 CCR5 transfectants, Fluo3 or Fluo4, agonist MIP-1α, MIP-1β, HCC-1(9-74) or RANTES, read-out: IC50, inhibition of Ca2+ flux), the IC50 turned out to be 8 nM.
